# Patent US20040242639A1, “Phospholipase C inhibitors for use in treating inflammatory disorders” (priority 2003, published 2004)
# Target: T1, human PLC-β2 (Homo sapiens, UniProt Q00722)
# T1 construct: made in house; host or cells: Sf9 cells (Spodoptera frugiperda), recombinant baculovirus
# Test: PLC assay using FlashPlates (immobilized [3H]PIP2 hydrolysis)
# Assay type: biochemical
# Settings: for IC50: 96-well Phospholipid FlashPlates coated with [3H]PIP2, purified recombinant human PLC-β2 or cytosolic human PLC-β2; for inhibition at 10 µM: read-out: %
# Source text: The hydrolysis of phosphatidylinositol-4,5-bisphosphate (PIP2) by a specific phospholipase C-β2 (PLC-β2) produces two intracellular messengers, diacylglycerol (DAG) and inositol 1,4,5-trisphosphate ([…]), which mediate the activation of protein kinase C and intracellular Ca^2+ release. A conventional organic solvent extraction method is widely used for PLC assays to isolate IP3 from the substrate […]. The conventional PLC-β2 assay, however is terminated by addition of acidified organic solvents and subsequent extraction and phase separation. […] Accordingly, a preferred method to test the compounds of the present invention, was developed utilizing a 96-well plate assay for PLC-β2 using immobilized radiolabeled substrate to quantitatively measure the reduction in the substrate level without a need for organic solvent extraction. The automated PLC-β2 assay described herein provides a convenient method for quantitative measurement of phospholipase C activities in a high throughput fashion.
# Ninety-six well Phospholipid FlashPlates were coated with 0.2 mL of 50 mM Tris/HCl (pH 7.4), 0.01% Ac-BSA and 50,000 cpm of ^[3H]PIP2 (phosphatidylinositol-4,5-bisphosphate) at 4° C. for 72 h. The wells were aspirated and washed twice with PBS. The reactions were conducted directly in the wells in PLC reaction buffer containing 50 mM Tris/HCl (pH 7.2), 2.75 mM EDTA (pH 7.3), 80 mM KCl, 10 mM LiCl, 0.04% DOC and 2 mM CaCl2 in the absence or presence of the purified recombinant human PLC-β2 (prepared as described hereafter) or cytosolic human PLC-β2 from […]. Reduction of radioactivity was monitored by a Packard TopCount instrument (Packard Instrument Company, Conn., USA).
# Suspension cultures of Sf9 cells were maintained in a spinner flask at 27° C. and stirred at 90 rpm. The cells were grown in Grace's media supplemented with 10% (v/v) fetal bovine serum, 3.3 g/l yeastolate, 3.3 g/l lactalbumin hydrosylate, glutamine (6.4 mM final), […] gentamicin, and 50 µg/ml kanamycin. Suspension of Sf9 cells (1.0×10^6 cells/ml) were infected with 5 pfu/cell of recombinant baculovirus encoding PLC-β2 and incubated at 27° C. for 72 h. The cells were collected by centrifugation (500×g, 7 min, 4° C.) and disrupted by hypotonic lysis buffer containing 20 mM Tris/HCl, pH 7.4, 5 mM MgCl2, 2 mM EGTA, 200 μM PMSF, 200 μM benzamidine and 1 μM pepstatin A. The lysate was sonicated on ice and the nuclei and unbroken cells removed by centrifugation (500×g, 5 min, 4° C.). The supernatant was recovered and clarified by centrifugation (34,000 rpm, 60 min, 4° C.). The supernatant was used as a crude cytosolic fraction (Paterson, A., Boyer, J. L., Watts, V. J., Morris, A. J., Price, E. M., Harden, T. K. (1995) Concentration of enzyme-dependent activation of PLC β1 and PLC β2 by Gα11 and βγ subunits. Cellular Signalling 7, 709-720).
# Crude cytosol prepared from Sf9 cells expressing PLC-β2 was purified initially by chromatography on a 10 ml column of Q-Sepharose FF, equilibrated in buffer A (25 mM HEPES, pH 7.2,2 mM DTT, 2mM EDTA, 2 mM EGTA, 200 μM PMSF, 200 μM benzamidine, 1 μM pepstatin A containing 10 mM NaCl). […]
# T1 sequence (Q00722 whole entry): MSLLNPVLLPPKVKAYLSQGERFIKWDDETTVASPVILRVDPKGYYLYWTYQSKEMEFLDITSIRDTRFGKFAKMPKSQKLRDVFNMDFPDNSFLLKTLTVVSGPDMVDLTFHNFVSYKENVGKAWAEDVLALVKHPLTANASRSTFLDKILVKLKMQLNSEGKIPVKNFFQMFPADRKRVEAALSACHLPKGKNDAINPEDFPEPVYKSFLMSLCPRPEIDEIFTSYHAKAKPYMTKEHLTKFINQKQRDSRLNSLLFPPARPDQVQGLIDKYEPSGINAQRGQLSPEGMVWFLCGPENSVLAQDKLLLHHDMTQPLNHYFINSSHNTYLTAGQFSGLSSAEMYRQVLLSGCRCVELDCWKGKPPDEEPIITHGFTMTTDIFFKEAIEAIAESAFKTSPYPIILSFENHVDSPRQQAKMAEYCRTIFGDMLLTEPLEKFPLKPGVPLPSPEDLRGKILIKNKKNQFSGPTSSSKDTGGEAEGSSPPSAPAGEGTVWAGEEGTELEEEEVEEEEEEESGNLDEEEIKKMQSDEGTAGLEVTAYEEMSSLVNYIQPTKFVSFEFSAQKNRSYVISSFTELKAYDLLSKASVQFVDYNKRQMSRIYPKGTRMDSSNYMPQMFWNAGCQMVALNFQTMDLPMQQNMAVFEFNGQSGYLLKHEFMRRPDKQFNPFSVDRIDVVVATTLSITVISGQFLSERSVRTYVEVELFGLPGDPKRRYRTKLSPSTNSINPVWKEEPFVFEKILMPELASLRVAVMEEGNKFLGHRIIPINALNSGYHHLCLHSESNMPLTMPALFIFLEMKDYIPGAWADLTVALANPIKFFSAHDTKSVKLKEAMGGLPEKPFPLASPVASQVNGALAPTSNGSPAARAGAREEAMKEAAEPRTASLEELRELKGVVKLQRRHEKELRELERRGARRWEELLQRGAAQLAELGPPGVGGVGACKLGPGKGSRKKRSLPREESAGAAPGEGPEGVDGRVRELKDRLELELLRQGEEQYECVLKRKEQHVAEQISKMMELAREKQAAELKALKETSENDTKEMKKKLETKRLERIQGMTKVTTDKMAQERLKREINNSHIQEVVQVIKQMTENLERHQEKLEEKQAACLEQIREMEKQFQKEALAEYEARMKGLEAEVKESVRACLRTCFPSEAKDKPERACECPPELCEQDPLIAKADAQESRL
Compound,IC50,inhibition at 10 µM
"NC(=O)c1ccc(N2CCC(Cc3ccccc3)CC2)c(NC(=O)Nc2ccccc2)c1 [Cpd 1, 3-[[(phenylamino)carbonyl]amino]-4-[4-(phenylmethyl)-1-piperidinyl]-benzamide]",3.4 µM,–
"NC(=O)c1ccc(N2CCC(c3ccccc3)CC2)c(NC(=O)Nc2ccccc2)c1 [Cpd 2, 3-[[(phenylamino)carbonyl]amino]-4-(4-phenyl-1-piperidinyl)-benzamide]",7.1 µM,–
"NC(=O)c1ccc(N2CCC(c3ccccc3)CC2)c(NC(=O)Nc2ccc3c(c2)OCO3)c1 [Cpd 3, 3-[[(1,3-benzodioxol-5-ylamino)carbonyl]amino]-4-(4-phenyl-1-piperidinyl)-benzamide]",11 µM,–
"NC(=O)c1ccc(N2CCC(C(c3ccccc3)c3ccccc3)CC2)c(NC(=O)Nc2ccccc2)c1 [Cpd 6, 4-[4-(diphenylmethyl)-1-piperidinyl]-3-[[(phenylamino)carbonyl]amino]-benzamide]",–,60.7%
"NC(=O)c1ccc(N2CCC(=C(c3ccccc3)c3ccccc3)CC2)c(NC(=O)Nc2ccccc2)c1 [Cpd 7, 4-[4-(diphenylmethylene)-1-piperidinyl]-3-[[(phenylamino)carbonyl]amino]-benzamide]",–,49.8%
